Earlier results as cited in patent US11529387B2, “Nutritional supplements and methods of nutritional supplementation affecting global mood state” (Amare Global, priority 2019, dated 2022).

Columns and labels:
[1] = runners, submaximal running intensity, week 8 post-supplementation vs pre-supplementation and vs placebo, p<0.05

## CC1=C(/C=C/C(C)=C/C=C/C(C)=C/C=C/C=C(C)/C=C/C=C(C)/C=C/C2=C(C)C(=O)[C@@H](O)CC2(C)C)C(C)(C)C[C@H](O)C1=O [NAX, astaxanthin]
[1]
  heart rate (HR) at AT, anaerobic threshold: significantly lower heart rate
  heart rate (HR) at AeT, aerobic threshold: significantly lower heart rate
8 weeks post-supplementation, lower score = more positive mood
  Global Mood State score: 127+20
8 weeks post-supplementation, lower score = more positive mood, p<0.05
  Global Mood change: −11%
Baseline to week 8, NS
  Anger sub-scale change: −12%
  Confusion sub-scale change: −28%
  Tension sub-scale change: −20%
  Vigor sub-scale change: +5%
Baseline to week 8, p<0.05
  Depression sub-scale change: −57%
  Fatigue sub-scale change: −36%
